Reference: ChEMBL document CHEMBL3734695, “Cytotoxic potential of dispirooxindolo/acenaphthoquino andrographolide derivatives against MCF-7 cell line” (Medchemcomm, 2015)
The source made the active and inactive calls. The calls are words filed in the database; no cut-off is given here.

These compounds were tested on MCF7 (assay: Induction of apoptosis in human MCF7 cells assessed as ratio of depolarized to polarized mitochondrial membrane at IC50 by JC-1 dye based FACS analysis). Conditions: TDE = time-dependent effect.
Format: functional, cell-based
For `C=C1CC[C@@H]2[C@](C)(CO)[C@H](O)CC[C@@]2(C)[C@@H]1CC1CN(Cc2ccccc2)[C@@]2(C(=O)c3cccc4cccc2c34)[C@]12C(=O)OC[C@H]2O` (stereo partly drawn), the Activity was “tde”.

The compounds below were run on MCF7 (assay: Cell cycle arrest in human MCF7 cells assessed as accumulation at G0/G1 phase at IC50 after 48 hrs by propidium iodide staining based flow cytometric analysis (reference value: 59.5%)). Conditions: not given.
Format: functional
`C=C1CC[C@@H]2[C@](C)(CO)[C@H](O)CC[C@@]2(C)[C@@H]1CC1CN(Cc2ccccc2)[C@@]2(C(=O)c3cccc4cccc2c34)[C@]12C(=O)OC[C@H]2O` (stereo partly drawn) was tested, and the Activity was 32.3%.

Each compound was assayed on MCF7 (assay: Induction of apoptosis in human MCF7 cells assessed as increase in cleaved PARP-1 level at IC50 after 48 hrs by western blot analysis). Conditions: not given.
Format: functional, cell-based
In the case of `C=C1CC[C@@H]2[C@](C)(CO)[C@H](O)CC[C@@]2(C)[C@@H]1CC1CN(Cc2ccccc2)[C@@]2(C(=O)c3cccc4cccc2c34)[C@]12C(=O)OC[C@H]2O` (stereo partly drawn), the Activity is reported as “Active”.

Each compound was assayed on MCF7 (assay: Induction of apoptosis in human MCF7 cells assessed as dead cells at IC50 after 48 hrs by annexin V-FITC/propidium iodide staining based flow cytometric analysis (reference value: 0.2%)). Conditions: not given.
Format: functional
With `C=C1CC[C@@H]2[C@](C)(CO)[C@H](O)CC[C@@]2(C)[C@@H]1CC1CN(Cc2ccccc2)[C@@]2(C(=O)c3cccc4cccc2c34)[C@]12C(=O)OC[C@H]2O` (stereo partly drawn) the Activity was 0%.

The compounds below were run on MCF7 (assay: Induction of apoptosis in human MCF7 cells assessed as rounded cells at IC50 after 24 hrs by inverted phase contrast microscopic analysis). Conditions: not given.
Format: functional, cell-based
`C=C1CC[C@@H]2[C@](C)(CO)[C@H](O)CC[C@@]2(C)[C@@H]1CC1CN(Cc2ccccc2)[C@@]2(C(=O)c3cccc4cccc2c34)[C@]12C(=O)OC[C@H]2O` (stereo partly drawn) was tested, and the Activity was “Active”.

The compounds below were run on MCF7 (assay: Induction of apoptosis in human MCF7 cells assessed as early apoptotic cells at IC50 after 24 hrs by annexin V-FITC/propidium iodide staining based flow cytometric analysis (reference value: 0.1%)). Conditions: not given.
Format: functional
For `C=C1CC[C@@H]2[C@](C)(CO)[C@H](O)CC[C@@]2(C)[C@@H]1CC1CN(Cc2ccccc2)[C@@]2(C(=O)c3cccc4cccc2c34)[C@]12C(=O)OC[C@H]2O` (stereo partly drawn), the Activity was 42.4%.

These compounds were tested on MCF7 (assay: Induction of apoptosis in human MCF7 cells assessed as viable cells at IC50 after 24 hrs by annexin V-FITC/propidium iodide staining based flow cytometric analysis (reference value: 99.8%)). Conditions: not given.
Format: functional
Work on `C=C1CC[C@@H]2[C@](C)(CO)[C@H](O)CC[C@@]2(C)[C@@H]1CC1CN(Cc2ccccc2)[C@@]2(C(=O)c3cccc4cccc2c34)[C@]12C(=O)OC[C@H]2O` (stereo partly drawn) yielded an Activity of 56.5%.

Each compound was assayed on MCF7 (assay: Induction of apoptosis in human MCF7 cells assessed as early apoptotic cells at IC50 after 48 hrs by annexin V-FITC/propidium iodide staining based flow cytometric analysis (reference value: 0.1%)). Conditions: not given.
Format: functional
In the case of `C=C1CC[C@@H]2[C@](C)(CO)[C@H](O)CC[C@@]2(C)[C@@H]1CC1CN(Cc2ccccc2)[C@@]2(C(=O)c3cccc4cccc2c34)[C@]12C(=O)OC[C@H]2O` (stereo partly drawn), the Activity is reported as 95%.

The compounds below were run on MCF7 (assay: Induction of apoptosis in human MCF7 cells assessed as progressive cell detachment at IC50 after 24 hrs by inverted phase contrast microscopic analysis). Conditions: not given.
Format: functional, cell-based
With `C=C1CC[C@@H]2[C@](C)(CO)[C@H](O)CC[C@@]2(C)[C@@H]1CC1CN(Cc2ccccc2)[C@@]2(C(=O)c3cccc4cccc2c34)[C@]12C(=O)OC[C@H]2O` (stereo partly drawn) the Activity was “Active”.

What follows are compounds tested on MCF7 (assay: Induction of apoptosis in human MCF7 cells assessed as polarized mitochondrial membrane at IC50 after 24 hrs by JC-1 dye based FACS analysis (reference value: 90%)). Conditions: not given.
Format: functional
`N#CC(C#N)=NNc1cccc(Cl)c1` [CARBONYL CYANIDE M-CHLOROPHENYLHYDRAZONE] showed an Activity of 0%. `C=C1CC[C@@H]2[C@](C)(CO)[C@H](O)CC[C@@]2(C)[C@@H]1CC1CN(Cc2ccccc2)[C@@]2(C(=O)c3cccc4cccc2c34)[C@]12C(=O)OC[C@H]2O` (stereo partly drawn) was tested, and the Activity was 17%.

Each compound was assayed on MCF7 (assay: Induction of apoptosis in human MCF7 cells assessed as late apoptotic cells at IC50 after 24 hrs by annexin V-FITC/propidium iodide staining based flow cytometric analysis (reference value: 0.0%)). Conditions: not given.
Format: functional
`C=C1CC[C@@H]2[C@](C)(CO)[C@H](O)CC[C@@]2(C)[C@@H]1CC1CN(Cc2ccccc2)[C@@]2(C(=O)c3cccc4cccc2c34)[C@]12C(=O)OC[C@H]2O` (stereo partly drawn) showed an Activity of 0.8%.

These compounds were tested on MCF7 (assay: Induction of apoptosis in human MCF7 cells assessed as polarized mitochondrial membrane at IC50 after 48 hrs by JC-1 dye based FACS analysis (reference value: 90%)). Conditions: not given.
Format: functional
With `C=C1CC[C@@H]2[C@](C)(CO)[C@H](O)CC[C@@]2(C)[C@@H]1CC1CN(Cc2ccccc2)[C@@]2(C(=O)c3cccc4cccc2c34)[C@]12C(=O)OC[C@H]2O` (stereo partly drawn) the Activity was 3.6%.

These compounds were tested on MCF7 (assay: Induction of apoptosis in human MCF7 cells assessed as dead cells at IC50 after 24 hrs by annexin V-FITC/propidium iodide staining based flow cytometric analysis (reference value: 0.2%)). Conditions: not given.
Format: functional
For `C=C1CC[C@@H]2[C@](C)(CO)[C@H](O)CC[C@@]2(C)[C@@H]1CC1CN(Cc2ccccc2)[C@@]2(C(=O)c3cccc4cccc2c34)[C@]12C(=O)OC[C@H]2O` (stereo partly drawn), the Activity was 0.3%.

Each compound was assayed on MCF7 (assay: Induction of apoptosis in human MCF7 cells assessed as increase in cleaved caspase-9 level at IC50 after 48 hrs by western blot analysis). Conditions: not given.
Format: functional, cell-based
With `C=C1CC[C@@H]2[C@](C)(CO)[C@H](O)CC[C@@]2(C)[C@@H]1CC1CN(Cc2ccccc2)[C@@]2(C(=O)c3cccc4cccc2c34)[C@]12C(=O)OC[C@H]2O` (stereo partly drawn) the Activity was “Active”.

What follows are compounds tested on MCF7 (assay: Cell cycle arrest in human MCF7 cells assessed as accumulation at G2/M phase at IC50 after 24 hrs by propidium iodide staining based flow cytometric analysis (reference value: 24.2%)). Conditions: not given.
Format: functional
Work on `C=C1CC[C@@H]2[C@](C)(CO)[C@H](O)CC[C@@]2(C)[C@@H]1CC1CN(Cc2ccccc2)[C@@]2(C(=O)c3cccc4cccc2c34)[C@]12C(=O)OC[C@H]2O` (stereo partly drawn) yielded an Activity of 29.8%.

These compounds were tested on MCF7 (assay: Induction of apoptosis in human MCF7 cells assessed as late apoptotic cells at IC50 after 48 hrs by annexin V-FITC/propidium iodide staining based flow cytometric analysis (reference value: 0.0%)). Conditions: not given.
Format: functional
`C=C1CC[C@@H]2[C@](C)(CO)[C@H](O)CC[C@@]2(C)[C@@H]1CC1CN(Cc2ccccc2)[C@@]2(C(=O)c3cccc4cccc2c34)[C@]12C(=O)OC[C@H]2O` (stereo partly drawn) was tested, and the Activity was 4.6%.

These compounds were tested on MCF7 (assay: Cytotoxicity against human MCF7 cells assessed as growth inhibition after 72 hrs by MTT assay). Conditions: MCF7, 72 h.
Format: functional, cell-based
In the case of `C=C1CC[C@@H]2[C@](C)(CO)[C@H](O)CC[C@@]2(C)[C@@H]1CC1CN(Cc2ccccc2)[C@@]2(C(=O)c3cccc4cccc2c34)[C@]12C(=O)OC[C@H]2O` (stereo partly drawn), the IC50 is reported as 8.9 µM.

What follows are compounds tested on MCF7 (assay: Induction of apoptosis in human MCF7 cells assessed as increase in cleaved caspase-7 level at IC50 after 48 hrs by western blot analysis). Conditions: not given.
Format: functional, cell-based
For `C=C1CC[C@@H]2[C@](C)(CO)[C@H](O)CC[C@@]2(C)[C@@H]1CC1CN(Cc2ccccc2)[C@@]2(C(=O)c3cccc4cccc2c34)[C@]12C(=O)OC[C@H]2O` (stereo partly drawn), the Activity was “Active”.

What follows are compounds tested on MCF7 (assay: Induction of apoptosis in human MCF7 cells assessed as depolarized mitochondrial membrane at IC50 after 24 hrs by JC-1 dye based FACS analysis (reference value: 10%)). Conditions: not given.
Format: functional
In the case of `N#CC(C#N)=NNc1cccc(Cl)c1` [CARBONYL CYANIDE M-CHLOROPHENYLHYDRAZONE], the Activity is reported as 100%. Compound `C=C1CC[C@@H]2[C@](C)(CO)[C@H](O)CC[C@@]2(C)[C@@H]1CC1CN(Cc2ccccc2)[C@@]2(C(=O)c3cccc4cccc2c34)[C@]12C(=O)OC[C@H]2O` (stereo partly drawn) has an Activity of 83%.

The compounds below were run on MCF7 (assay: Induction of apoptosis in human MCF7 cells assessed as viable cells at IC50 after 48 hrs by annexin V-FITC/propidium iodide staining based flow cytometric analysis (reference value: 99.8%)). Conditions: not given.
Format: functional
`C=C1CC[C@@H]2[C@](C)(CO)[C@H](O)CC[C@@]2(C)[C@@H]1CC1CN(Cc2ccccc2)[C@@]2(C(=O)c3cccc4cccc2c34)[C@]12C(=O)OC[C@H]2O` (stereo partly drawn) showed an Activity of 0.4%.

What follows are compounds tested on MCF7 (assay: Cell cycle arrest in human MCF7 cells assessed as accumulation at S phase at IC50 after 24 hrs by propidium iodide staining based flow cytometric analysis (reference value: 16.3%)). Conditions: not given.
Format: functional
`C=C1CC[C@@H]2[C@](C)(CO)[C@H](O)CC[C@@]2(C)[C@@H]1CC1CN(Cc2ccccc2)[C@@]2(C(=O)c3cccc4cccc2c34)[C@]12C(=O)OC[C@H]2O` (stereo partly drawn) showed an Activity of 23.9%.

These compounds were tested on MCF7 (assay: Induction of apoptosis in human MCF7 cells assessed as depolarized mitochondrial membrane at IC50 after 48 hrs by JC-1 dye based FACS analysis (reference value: 10%)). Conditions: not given.
Format: functional
`C=C1CC[C@@H]2[C@](C)(CO)[C@H](O)CC[C@@]2(C)[C@@H]1CC1CN(Cc2ccccc2)[C@@]2(C(=O)c3cccc4cccc2c34)[C@]12C(=O)OC[C@H]2O` (stereo partly drawn) showed an Activity of 96.4%.

Each compound was assayed on MCF7 (assay: Cell cycle arrest in human MCF7 cells assessed as accumulation at G2/M phase at IC50 after 48 hrs by propidium iodide staining based flow cytometric analysis (reference value: 24.2%)). Conditions: not given.
Format: functional
`C=C1CC[C@@H]2[C@](C)(CO)[C@H](O)CC[C@@]2(C)[C@@H]1CC1CN(Cc2ccccc2)[C@@]2(C(=O)c3cccc4cccc2c34)[C@]12C(=O)OC[C@H]2O` (stereo partly drawn) showed an Activity of 27.5%.

What follows are compounds tested on MCF7 (assay: Cell cycle arrest in human MCF7 cells assessed as accumulation at G0/G1 phase at IC50 after 24 hrs by propidium iodide staining based flow cytometric analysis (reference value: 59.5%)). Conditions: not given.
Format: functional
`C=C1CC[C@@H]2[C@](C)(CO)[C@H](O)CC[C@@]2(C)[C@@H]1CC1CN(Cc2ccccc2)[C@@]2(C(=O)c3cccc4cccc2c34)[C@]12C(=O)OC[C@H]2O` (stereo partly drawn) gave an Activity of 46.3%.

What follows are compounds tested on MCF7 (assay: Cell cycle arrest in human MCF7 cells assessed as accumulation at S phase at IC50 after 48 hrs by propidium iodide staining based flow cytometric analysis (reference value: 16.3%)). Conditions: not given.
Format: functional
In the case of `C=C1CC[C@@H]2[C@](C)(CO)[C@H](O)CC[C@@]2(C)[C@@H]1CC1CN(Cc2ccccc2)[C@@]2(C(=O)c3cccc4cccc2c34)[C@]12C(=O)OC[C@H]2O` (stereo partly drawn), the Activity is reported as 38.6%.

What follows are compounds tested on MCF7 (assay: Induction of ROS generation in human MCF7 cells at IC50 after 24 hrs by CM-H2DCFDA staining based flow cytometric analysis (reference value: 12.6%)). Conditions: not given.
Format: functional
For `C=C1CC[C@@H]2[C@](C)(CO)[C@H](O)CC[C@@]2(C)[C@@H]1CC1CN(Cc2ccccc2)[C@@]2(C(=O)c3cccc4cccc2c34)[C@]12C(=O)OC[C@H]2O` (stereo partly drawn), the Activity was 97.7%.
